≈ marks a conversion by molar mass, not a printed value. Calls of active or inactive are those of the source. The rule behind the calls is not given here. Peptide text beside a SMILES is read from it.
Legend:
[1] = tested on: Salmonella typhimurium; assay: Antibacterial activity against Salmonella typhimurium DT104 in the presence of FeCl3 by MH broth based assay; type: functional, Salmonella enterica subsp. enterica serovar Typhimurium; conditions: Salmonella enterica
[2] = tested on: Salmonella typhimurium; assay: Antibacterial activity against Salmonella typhimurium DT104 in the presence of MgCl2 by MH broth based assay; type: functional, Salmonella enterica subsp. enterica serovar Typhimurium; conditions: Salmonella enterica
[3] = tested on: Salmonella typhimurium; assay: Antibacterial activity against Salmonella typhimurium DT104 in the presence 25% inactivated mouse serum by MH broth based assay; type: functional, Salmonella enterica subsp. enterica serovar Typhimurium; conditions: Salmonella enterica
[4] = tested on: Salmonella typhimurium; assay: Antibacterial activity against Salmonella typhimurium DT104 in the presence of NH4Cl by MH broth based assay; type: functional, Salmonella enterica subsp. enterica serovar Typhimurium; conditions: Salmonella enterica
[5] = tested on: Salmonella typhimurium; assay: Antibacterial activity against Salmonella typhimurium DT104 in the presence of CaCl2 by MH broth based assay; type: functional, Salmonella enterica subsp. enterica serovar Typhimurium; conditions: Salmonella enterica
[6] = tested on: Salmonella typhimurium; assay: Antibacterial activity against Salmonella typhimurium DT104 in the presence of NaCl by MH broth based assay; type: functional, Salmonella enterica subsp. enterica serovar Typhimurium; conditions: Salmonella enterica
[7] = tested on: Salmonella typhimurium; assay: Antibacterial activity against Salmonella typhimurium DT104 in the presence of KCl by MH broth based assay; type: functional, Salmonella enterica subsp. enterica serovar Typhimurium; conditions: Salmonella enterica
[8] = tested on: Salmonella typhimurium; assay: Antibacterial activity against Salmonella typhimurium DT104 in the presence 50% inactivated mouse serum by MH broth based assay; type: functional, Salmonella enterica subsp. enterica serovar Typhimurium; conditions: Salmonella enterica
[9] = Antibacterial activity against Salmonella enterica subsp. enterica serovar Choleraesuis CICC 21493 incubated overnight by standard microtiter dilution method; type: functional
[10] = tested on: RAW264.7; assay: Inhibition of LPS-stimulated TNF-alpha production in mouse RAW264.7 cells at 1 to 128 ug/ml incubated for 24 hrs by ELISA analysis; type: functional, cell-based; conditions: dose 1-128 µg/ml
[11] = tested on: Enterococcus faecalis; assay: Antibacterial activity against Enterococcus faecalis ATCC 29212 incubated overnight by standard microtiter dilution method; type: functional
[12] = tested on: RAW264.7; assay: Inhibition of LPS-stimulated NO production in mouse RAW264.7 cells incubated for 24 hrs by Griess reagent based analysis; type: functional, cell-based; conditions: dose 1-128 µg/ml
[13] = Antibacterial activity against Salmonella blockley CICC 21489 incubated overnight by standard microtiter dilution method; type: functional, Salmonella enterica subsp. enterica serovar Blockley; conditions: Salmonella enterica
[14] = tested on: Salmonella typhimurium; assay: Antibacterial activity against Salmonella typhimurium CICC 21913 incubated overnight by standard microtiter dilution method; type: functional, Salmonella enterica subsp. enterica serovar Typhimurium; conditions: Salmonella enterica
[15] = tested on: RAW264.7; assay: Inhibition of LPS-stimulated IL-1beta production in mouse RAW264.7 cells at 1 to 128 ug/ml incubated for 24 hrs by ELISA analysis; type: functional, cell-based; conditions: dose 1-128 µg/ml
[16] = Antibacterial activity against Salmonella enterica subsp. enterica serovar Choleraesuis ATCC 13312 incubated overnight by standard microtiter dilution method; type: functional
[17] = Antibacterial activity against Salmonella wandsworth CICC 21504 incubated overnight by standard microtiter dilution method; type: functional, Salmonella enterica subsp. enterica serovar Wandsworth; conditions: Salmonella enterica
[18] = Hemolytic activity in human Red blood cells assessed as hemolysis at 128 ug/ml incubated for 1 hrs by absorbance based microplate reader analysis relative to control; type: toxicity, cell-based, Erythrocyte; conditions: red blood cells (erythrocytes), at 128 µg/mL, read-out: Activity
[19] = tested on: Lipopolysaccharide (LPS); assay: Displacement of BODIPY-TR-cadaverine from Salmonella typhimurium LPS assessed as increase in fluorescence intensity by fluorescence spectrophotometric analysis; conditions: Salmonella enterica subsp. enterica serovar Typhimurium; dose 0.25-8 µg/ml
[20] = tested on: Candida albicans; assay: Antifungal activity against Candida albicans ATCC 10231 incubated overnight by standard microtiter dilution method; type: functional
[21] = tested on: Erythrocyte; assay: Hemolytic activity in human Red blood cells assessed as hemolysis incubated for 1 hrs by absorbance based microplate reader analysis; type: toxicity, cell-based
[22] = tested on: Salmonella paratyphi; assay: Antibacterial activity against Salmonella paratyphi A CICC 21501 incubated overnight by standard microtiter dilution method; type: functional, Salmonella enterica subsp. enterica serovar Paratyphi A; conditions: Salmonella enterica
[23] = tested on: Cell membrane; assay: Disruption of membrane integrity in Salmonella typhimurium DT104 assessed as increase in fluorescence intensity at 0.5 to 2 times of MIC incubated for 15 mins by PI staining based flow cytometric analysis; type: subcellular; conditions: Salmonella enterica subsp. enterica serovar Typhimurium
[24] = Antibacterial activity against Salmonella dublin CICC 21497 incubated overnight by standard microtiter dilution method; type: functional, Salmonella enterica subsp. enterica serovar Dublin; conditions: Salmonella enterica
[25] = tested on: Staphylococcus aureus; assay: Antibacterial activity against methicillin-resistant Staphylococcus aureus ATCC 43300 incubated overnight by standard microtiter dilution method; type: functional
[26] = tested on: Salmonella enterica subsp. enterica serovar Paratyphi B; assay: Antibacterial activity against Salmonella paratyphi B CICC 21495 incubated overnight by standard microtiter dilution method; type: functional
[27] = tested on: Salmonella enteritidis; assay: Antibacterial activity against Salmonella enteritidis CICC 21527 incubated overnight by standard microtiter dilution method; type: functional, Salmonella enterica subsp. enterica serovar Enteritidis; conditions: Salmonella enterica
[28] = Antibacterial activity against Salmonella paratyphi C CICC 21512 incubated overnight by standard microtiter dilution method; type: functional, Salmonella enterica subsp. enterica serovar Paratyphi C; conditions: Salmonella enterica
[29] = tested on: Salmonella typhimurium; assay: Antibacterial activity against Salmonella typhimurium DT104 ATCC 700408 incubated overnight by standard microtiter dilution method; type: functional, Salmonella enterica subsp. enterica serovar Typhimurium; conditions: Salmonella enterica
[30] = tested on: RAW264.7; assay: Inhibition of LPS-stimulated IL-8 production in mouse RAW264.7 cells at 1 to 128 ug/ml incubated for 24 hrs by ELISA analysis; type: functional, cell-based; conditions: dose 1-128 µg/ml
[31] = tested on: Staphylococcus aureus; assay: Antibacterial activity against Staphylococcus aureus ATCC 29213 incubated overnight by standard microtiter dilution method; type: functional
[32] = tested on: Escherichia coli; assay: Antibacterial activity against Escherichia coli O157:H7 CICC 21530 incubated overnight by standard microtiter dilution method; type: functional
[33] = tested on: Salmonella typhimurium; assay: Antibacterial activity against Salmonella typhimurium CICC 21483 incubated overnight by standard microtiter dilution method; type: functional, Salmonella enterica subsp. enterica serovar Typhimurium; conditions: Salmonella enterica
[34] = tested on: Staphylococcus epidermidis; assay: Antibacterial activity against methicillin-resistant Staphylococcus epidermidis ATCC 12228 incubated overnight by standard microtiter dilution method; type: functional

**Q.** Which results are given for `CC(C)C[C@H](NC(=O)[C@H](CCCNC(=N)N)NC(=O)CNC(=O)CNC(=O)[C@@H](N)CCCNC(=N)N)C(=O)N[C@H]1CSSC[C@@H](C(=O)N[C@H](C(=O)NCC(=O)N[C@@H](CCCNC(=N)N)C(N)=O)C(C)C)NC(=O)[C@H](C(C)C)NC(=O)[C@@H]2CSSC[C@H](NC(=O)[C@H](Cc3ccc(O)cc3)NC1=O)C(=O)N[C@@H](CCCNC(=N)N)C(=O)N[C@@H](CCCNC(=N)N)C(=O)N[C@@H](CCCNC(=N)N)C(=O)N[C@@H](Cc1ccccc1)C(=O)N2`?
**A.** MIC [1]: 32 µg/mL; MIC [2]: 8 µg/mL; MIC [3]: 32 µg/mL (≈ 14.8 µM); MIC [4]: 8 µg/mL; MIC [5]: 16 µg/mL; MIC [6]: 16 µg/mL; MIC [7]: 8 µg/mL; MIC [8]: 64 µg/mL (≈ 29.7 µM)

**Q.** With `CC(C)[C@H](NC(=O)CNC(=O)[C@H](CC(N)=O)NC(=O)CNC(=O)[C@H](Cc1ccc(O)cc1)NC(=O)[C@H](Cc1ccc(O)cc1)NC(=O)[C@@H](N)CCCCN)C(=O)N[C@@H](Cc1c[nH]cn1)C(=O)N[C@@H](CS)C(=O)N[C@H](C(=O)N[C@@H](CCCCN)C(=O)N[C@@H](CO)C(=O)NCC(=O)N[C@@H](CS)C(=O)N[C@@H](CO)C(=O)N[C@H](C(=O)N[C@@H](CC(N)=O)C(=O)N[C@@H](Cc1c[nH]c2ccccc12)C(N)=O)C(C)C)[C@@H](C)O` (H-KYYGNGVHCTKSGCSVNW-NH2) as the molecule, how does the MIC [9] read?
**A.** Its MIC is 128 µg/mL (≈ 63.9 µM).

**Q.** What about the inhibition [10] of the same molecule?
**A.** The inhibition was “Active”.

**Q.** And the MIC [11]?
**A.** The MIC was greater than 128 µg/mL.

**Q.** What about the inhibition [12] of the same molecule?
**A.** Its inhibition is “Dose-Dependent Effect”.

**Q.** What about the MIC [13] of the same molecule?
**A.** The MIC was 64 µg/mL (≈ 32 µM).

**Q.** What about the MIC [1] of the same molecule?
**A.** The MIC was 64 µg/mL.

**Q.** What about the MIC [14] of the same molecule?
**A.** The MIC was greater than 128 µg/mL.

**Q.** And the MIC [2]?
**A.** The MIC was 128 µg/mL.

**Q.** What about the inhibition [15] of the same molecule?
**A.** Its inhibition is “Active”.

**Q.** What about the MIC [16] of the same molecule?
**A.** The MIC was 32 µg/mL (≈ 16 µM).

**Q.** What about the MIC [17] of the same molecule?
**A.** Its MIC is 64 µg/mL (≈ 32 µM).

**Q.** And the hemolysis at 1 h, 128 ug/ml [18]?
**A.** The hemolysis at 1 h, 128 ug/ml was less than 10%.

**Q.** And the MIC [3]?
**A.** The MIC was greater than 128 µg/mL.

**Q.** What about the Activity [19] of the same molecule?
**A.** Its Activity is “Dose-Dependent Effect”.

**Q.** And the MIC [20]?
**A.** Its MIC is 16 µg/mL (≈ 7.99 µM).

**Q.** And the MHC [21]?
**A.** The MHC was greater than 128 µg/mL.

**Q.** And the MIC [22]?
**A.** The MIC was 128 µg/mL (≈ 63.9 µM).

**Q.** And the MIC [4]?
**A.** Its MIC is 64 µg/mL.

**Q.** What about the Activity [23] of the same molecule?
**A.** Its Activity is “inactive”.

**Q.** And the MIC [24]?
**A.** The MIC was 32 µg/mL (≈ 16 µM).

**Q.** And the MIC [25]?
**A.** Its MIC is greater than 128 µg/mL.

**Q.** What about the MIC [26] of the same molecule?
**A.** Its MIC is 32 µg/mL (≈ 16 µM).

**Q.** What about the MIC [5] of the same molecule?
**A.** The MIC was greater than 128 µg/mL.

**Q.** What about the MIC [6] of the same molecule?
**A.** The MIC was greater than 128 µg/mL.

**Q.** And the MIC [7]?
**A.** Its MIC is 128 µg/mL.

**Q.** And the MIC [27]?
**A.** The MIC was 64 µg/mL (≈ 32 µM).

**Q.** What about the MIC [8] of the same molecule?
**A.** Its MIC is greater than 128 µg/mL.

**Q.** What about the MIC [28] of the same molecule?
**A.** Its MIC is 32 µg/mL (≈ 16 µM).

**Q.** And the MIC [29]?
**A.** The MIC was greater than 128 µg/mL.

**Q.** And the inhibition [30]?
**A.** Its inhibition is “Active”.

**Q.** What about the MIC [31] of the same molecule?
**A.** The MIC was greater than 128 µg/mL.

**Q.** And the MIC [32]?
**A.** The MIC was 64 µg/mL (≈ 32 µM).

**Q.** And the MIC [33]?
**A.** The MIC was 64 µg/mL (≈ 32 µM).

**Q.** And the MIC [34]?
**A.** The MIC was 64 µg/mL (≈ 32 µM).

**Q.** Which results are given for `CC(C)C[C@H](NC(=O)[C@H](CCCCN)NC(=O)[C@H](CS)NC(=O)CNC(=O)[C@H](CO)NC(=O)[C@H](CCCCN)NC(=O)[C@@H](NC(=O)[C@H](CS)NC(=O)[C@H](CCCCN)NC(=O)[C@@H](N)CC(C)C)[C@@H](C)O)C(N)=O` (H-LKCTKSGCKL-NH2)?
**A.** MIC [9]: > 128 µg/mL; inhibition [10]: Active; MIC [11]: > 128 µg/mL; inhibition [12]: Dose-Dependent Effect; MIC [13]: > 128 µg/mL; MIC [1]: > 128 µg/mL; MIC [14]: > 128 µg/mL; MIC [2]: > 128 µg/mL; inhibition [15]: Active; MIC [16]: > 128 µg/mL; MIC [17]: > 128 µg/mL; hemolysis at 1 h, 128 ug/ml [18]: < 10%; MIC [3]: > 128 µg/mL; Activity [19]: Dose-Dependent Effect; MIC [20]: > 128 µg/mL; MHC [21]: > 128 µg/mL; MIC [22]: > 128 µg/mL; MIC [4]: > 128 µg/mL; MIC [24]: > 128 µg/mL; MIC [25]: > 128 µg/mL; MIC [26]: > 128 µg/mL; MIC [5]: > 128 µg/mL; MIC [6]: > 128 µg/mL; MIC [7]: > 128 µg/mL; MIC [27]: > 128 µg/mL; MIC [8]: > 128 µg/mL; MIC [28]: > 128 µg/mL; MIC [29]: > 128 µg/mL; inhibition [30]: Active; MIC [31]: > 128 µg/mL; MIC [32]: > 128 µg/mL; MIC [33]: > 128 µg/mL; MIC [34]: > 128 µg/mL
